Here are results for 19 compounds from patent US20240415819A1, “MACROCYCLIC COMPOUNDS AS PROTEASOME SUBUNIT BETA TYPE-5 INHIBITORS” (Lead Discovery Center GmbH, priority 2021, published 2024).

The target in assay [1] is T1, β5 subunit of the human constitutive proteasome (CPS) (Homo sapiens, UniProt P28074).
T1 construct: purchased Boston Biochem E-360
The assay can be described thus: β5 inhibition assay, human constitutive proteasome (Suc-LLVY-AMC). Format: biochemical. Conditions: IC50 class, Suc-LLVY-AMC substrate. The method, then: The enzymatic activity of the β5 subunit of the human constitutive proteasome (CPS) is analyzed. In another assay, which differs from the assay of the human constitutive proteasome only in using the human immunoproteasome (IPS) the enzymatic activity of the β5 subunit of the human immunoproteasome (IPS) is analyzed. […] Inhibition is indicated as IC50 [nM] (“-”=not measured).

Assay [2] has as its target T2, β5 subunit of the human immunoproteasome (IPS) (Homo sapiens, UniProt P28062).
T2 construct: purchased Boston Biochem E-370
Briefly: β5 inhibition assay, human immunoproteasome (Suc-LLVY-AMC). It is filed as biochemical. The note with it: IC50 class, Suc-LLVY-AMC substrate. Put shortly:
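Human immunoproteasome (1 nM final) was preincubated 10 min at RT with compound in 100 mM HEPES pH 7.5, 50 mM NaCl, 0.02% SDS, 1 mM DTT. Suc-LLVY-AMC (22.6 μM final) was then added for 4 h at RT in the dark. After stopping with 1 μM bortezomib, AMC fluorescence was read (ex 355/em 460 nm).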

In another assay the test system is hPMBC. The assay can be described thus: Chymotrypsin-like ProteasomeGlo assay in hPBMC. Format: cell-based. Conditions: Homo sapiens; read-out: Pglo hPBMC. Put shortly: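 B cells isolated from human PBMC (buffy coats, density gradient, magnetic isolation). Cells treated with compound for 105 min at 37 °C, with staurosporine and DMSO included. Chymotrypsin-like proteasome activity read by luminescence with Suc-LLVY-Glo substrate to derive IC50.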

As to `Cc1ccc2cc1CNC(=O)[C@H](CCc1ccccc1)NC(=O)[C@@H](NC(=O)CCc1ccc3[nH]ccc3c1)CC(=O)N1CCCC(CCO2)C1` (stereo partly drawn) [Compound 182, 3-(1H-indol-5-yl)-N-((9S,12S)-5^4-methyl-8,11,14-trioxo-9-phenethyl-4-oxa-7,10-diaza-1(3,1)-piperidina-5(1,3)-benzenacyclotetradecaphane-12-yl)propanamide], the IC50 (in assay [1]; in assay [2]; in the assay with hPMBC) was less than 100 nM each time.

With `CC(=O)N[C@H]1CCCC(=O)N2CCOC(CCOc3ccc(C)c(c3)CNC(=O)[C@H](CCc3ccccc3)NC1=O)C2` (stereo partly drawn) [Compound 186, N-((9S,12S)-5^4-methyl-8,11,16-trioxo-9-phenethyl-4-oxa-7,10-diaza-1(2,4)-morpholina-5(1,3)-benzenacyclohexadecaphane-12-yl)acetamide], the IC50 in assay [1] is less than 100 nM; in assay [2], less than 100 nM; in the assay on hPMBC it was 100 to 500 nM.

Regarding `CC(=O)N[C@H]1CCCC(=O)N2CC3CC(Oc4ccc(C)c(c4)CNC(=O)[C@H](CCc4ccccc4)NC1=O)C3C2` (stereo partly drawn) [Compound 191, N-((11R,15S,7S,10S)-3^4-methyl-6,9,14-trioxo-7-phenethyl-2-oxa-13,5,8-triaza-1(7,3)-bicyclo[3.2.0]heptana-3(1,3)-benzenacyclotetradecaphane-10-yl)acetamide], the values for the IC50 (in assay [1]; in assay [2]; in the assay on hPMBC) were 500 to 1000 nM, less than 100 nM and 100 to 500 nM, respectively.

Take `Cc1ccc2cc1CNC(=O)[C@H](CCc1ccccc1)NC(=O)[C@@H](NC(=O)OCc1ccccc1)CCCC(=O)N1CCCC(CCO2)C1` (stereo partly drawn) [Compound 195, benzyl ((9S,12S)-5^4-methyl-8,11,16-trioxo-9-phenethyl-4-oxa-7,10-diaza-1(3,1)-piperidina-5(1,3)-benzenacyclohexadecaphane-12-yl)carbamate]: the IC50 (in assay [1]; in assay [2]; in the assay on hPMBC) was less than 100 nM throughout.

`Cc1ccc2cc1CNC(=O)[C@H](CCc1ccccc1)NC(=O)[C@@H](NC(=O)OCc1ccccc1)CCC(=O)N1CCCC(CCO2)C1` (stereo partly drawn) [Compound 199, benzyl ((9S,12S)-5^4-methyl-8,11,15-trioxo-9-phenethyl-4-oxa-7,10-diaza-1(3,1)-piperidina-5(1,3)-benzenacyclopentadecaphane-12-yl)carbamate]: the IC50 (in assay [1]; in assay [2]; with hPMBC) was less than 100 nM each time.

For the compound `CC(=O)N[C@H]1CC(=O)N2CCCC(CCOc3ccc(F)c(c3)CNC(=O)[C@H](CCc3ccccc3)NC1=O)C2` (stereo partly drawn) [Compound 205, N-((9S,12S)-5^4-fluoro-8,11,14-trioxo-9-phenethyl-4-oxa-7,10-diaza-1(3,1)-piperidina-5(1,3)-benzenacyclotetradecaphane-12-yl)acetamide], the IC50 (in assay [1]; in assay [2]; in the assay with hPMBC) was less than 100 nM throughout.

For the compound `COc1ccc2cc1CNC(=O)[C@H](CCc1ccccc1)NC(=O)[C@@H](NC(C)=O)CC(=O)N1CCCC(CCO2)C1` (stereo partly drawn) [Compound 211, N-((9S,12S)-5^4-methoxy-8,11,14-trioxo-9-phenethyl-4-oxa-7,10-diaza-1(3,1)-piperidina-5(1,3)-benzenacyclotetradecaphane-12-yl)acetamide], the IC50 in assay [1] is 100 to 500 nM; in assay [2], less than 100 nM; in the assay with hPMBC, 100 to 500 nM.

In the case of `CC(=O)N[C@H]1CCCC(=O)N2CCCC(CCOc3ccc(C)c(c3)CNC(=O)[C@H](CCc3ccccc3)NC1=O)C2` (stereo partly drawn) [Compound 213, N-((9S,12S)-5^4-methyl-8,11,16-trioxo-9-phenethyl-4-oxa-7,10-diaza-1(3,1)-piperidina-5(1,3)-benzenacyclohexadecaphane-12-yl)acetamide], the IC50 (in assay [1]; in assay [2]; in the assay on hPMBC) was less than 100 nM in each case.

On to `CC(=O)N[C@H]1CCC(=O)N2CCCC(CCOc3ccc(C)c(c3)CNC(=O)[C@H](CCc3ccccc3)NC1=O)C2` (stereo partly drawn) [Compound 215, N-((9S,12S)-5^4-methyl-8,11,15-trioxo-9-phenethyl-4-oxa-7,10-diaza-1(3,1)-piperidina-5(1,3)-benzenacyclopentadecaphane-12-yl)acetamide], for which the IC50 (in assay [1]; in assay [2]; with hPMBC) was less than 100 nM each time.

Consider `Cc1ccc2cc1CNC(=O)[C@H](CCc1ccccc1)NC(=O)[C@@H](NS(=O)(=O)Cc1ccccc1)CC(=O)N1CCCC(CCO2)C1` (stereo partly drawn) [Compound 216, N-((9S,12S)-5^4-methyl-8,11,14-trioxo-9-phenethyl-4-oxa-7,10-diaza-1(3,1)-piperidina-5(1,3)-benzenacyclotetradecaphane-12-yl)-1-phenylmethanesulfonamide], for which the IC50 (in assay [1]; in assay [2]; with hPMBC) was less than 100 nM throughout.

Turning to `Cc1ccc2cc1CNC(=O)[C@H](CCc1ccccc1)NC(=O)[C@@H](NS(=O)(=O)CCc1ccccc1)CC(=O)N1CCCC(CCO2)C1` (stereo partly drawn) [Compound 217, N-((9S,12S)-5^4-methyl-8,11,14-trioxo-9-phenethyl-4-oxa-7,10-diaza-1(3,1)-piperidina-5(1,3)-benzenacyclotetradecaphane-12-yl)-2-phenylethane-1-sulfonamide], the IC50 (in assay [1]; in assay [2]; with hPMBC) was less than 100 nM each time.

Turning to `COCCOCCOCCOCCOCCC(=O)N[C@H]1CC(=O)N2CCCC(CCOc3ccc(C)c(c3)CNC(=O)[C@H](CCc3ccccc3)NC1=O)C2` (stereo partly drawn) [Compound 219, N-((9S,12S)-5^4-methyl-8,11,14-trioxo-9-phenethyl-4-oxa-7,10-diaza-1(3,1)-piperidina-5(1,3)-benzenacyclotetradecaphane-12-yl)-2,5,8,11,14-pentaoxaheptadecan-17-amide], the IC50 (in assay [1]; in assay [2]; in the assay on hPMBC) was less than 100 nM in each case.

As for `COCCOCCOCCOC(=O)N[C@H]1CC(=O)N2CCCC(CCOc3ccc(C)c(c3)CNC(=O)[C@H](CCc3ccccc3)NC1=O)C2` (stereo partly drawn) [Compound 220, 2-(2-(2-methoxyethoxy)ethoxy)ethyl ((9R,12R)-5^4-methyl-8,11,14-trioxo-9-phenethyl-4-oxa-7,10-diaza-1(3,1)-piperidina-5(1,3)-benzenacyclotetradecaphane-12-yl)carbamate], the IC50 (in assay [1]; in assay [2]; in the assay on hPMBC) was less than 100 nM in each case.

As to `CC(=O)N[C@H]1CC(=O)N2CCOC(CCOc3ccc(C)c(c3)CNC(=O)[C@H](CCc3ccccc3)NC1=O)C2` (stereo partly drawn) [Compound 258, N-((9S,12S)-5^4-methyl-8,11,14-trioxo-9-phenethyl-4-oxa-7,10-diaza-1(2,4)-morpholina-5(1,3)-benzenacyclotetradecaphane-12-yl)acetamide], the values for the IC50 (in assay [1]; in assay [2]; in the assay with hPMBC) were 100 to 500 nM, less than 100 nM and 100 to 500 nM, respectively.

As to `CC(=O)N[C@H]1CCCC(=O)N2CCC2(C)COc2ccc(C)c(c2)CNC(=O)[C@H](CCc2ccccc2)NC1=O` (stereo partly drawn) [Compound 281, N-((8S,11S)-1^2,4^4-dimethyl-7,10,15-trioxo-8-phenethyl-3-oxa-6,9-diaza-1(2,1)-azetidina-4(1,3)-benzenacyclopentadecaphane-11-yl)acetamide], the IC50 (in assay [1]; in assay [2]; with hPMBC) was 1000 to 5000 nM throughout.

With `CC(=O)N[C@H]1CCC(=O)N(C)CCCCOc2ccc(C)c(c2)CNC(=O)[C@H](CCc2ccccc2)NC1=O` [Compound 282, N-((11S,14S)-1^4,7-dimethyl-8,12,15-trioxo-1^4-phenethyl-2-oxa-7,13,16-triaza-1(1,3)-benzenacycloheptadecaphane-11-yl)acetamide], the IC50 is more than 5000 nM in assay [1], 500 to 1000 nM in assay [2] and 500 to 1000 nM in the assay on hPMBC.

With `Cc1ccc2cc1CNC(=O)[C@H](CCc1ccccc1)NC(=O)[C@@H](NC(=O)C(C)(C)CO)CC(=O)N1CCCC(CCO2)C1` (stereo partly drawn) [Compound 284, 3-hydroxy-2,2-dimethyl-N-((9S,12S)-5^4-methyl-8,11,14-trioxo-9-phenethyl-4-oxa-7,10-diaza-1(3,1)-piperidina-5(1,3)-benzenacyclotetradecaphane-12-yl)propanamide], the IC50 (in assay [1]; in assay [2]; in the assay on hPMBC) was less than 100 nM throughout.

For `CCC(CC)(CO)C(=O)N[C@H]1CC(=O)N2CCCC(CCOc3ccc(C)c(c3)CNC(=O)[C@H](CCc3ccccc3)NC1=O)C2` (stereo partly drawn) [Compound 285, 2-ethyl-2-(hydroxymethyl)-N-((9S,12S)-5^4-methyl-8,11,14-trioxo-9-phenethyl-4-oxa-7,10-diaza-1(3,1)-piperidina-5(1,3)-benzenacyclotetradecaphane-12-yl)butanamide], the IC50 (in assay [1]; in assay [2]; with hPMBC) was less than 100 nM throughout.

Take `Cc1ccc2cc1CNC(=O)[C@H](CCc1ccccc1)NC(=O)[C@@H](NC(=O)C(C)(CO)CO)CC(=O)N1CCCC(CCO2)C1` (stereo partly drawn) [Compound 286, 3-hydroxy-2-(hydroxymethyl)-2-methyl-N-((9S,12S)-5^4-methyl-8,11,14-trioxo-9-phenethyl-4-oxa-7,10-diaza-1(3,1)-piperidina-5(1,3)-benzenacyclotetradecaphane-12-yl)propanamide]: the IC50 (in assay [1]; in assay [2]; in the assay with hPMBC) was less than 100 nM in each case.
